Source: patent publication US6867192B1, “Compounds useful in the treatment of inflammatory diseases” (priority 1998, dated 2005)
pIC50: −log10 of the molar value.

Tests used:
[1] = tested on: ovalbumin sensitised guinea pigs; assay: Inhibition of eosinophil infiltration and hyper-reactivity in the guinea pig; format: in vivo; details: dose 200 μg/kg body weight i.t., positive control
Description: (3) Inhibition of Eosinophil Infiltration and Hyper-Reactivity in the Guinea Pig
In a method based on that described by Danahay et al., 1997, ovalbumin sensitised guinea pigs were dosed with mepyramine (30 mg kg^−1 ip) to protect against anaphylactic bronchospasm. Test compounds, dissolved in 0.9% saline, were given by the inhaled route (30 minutes breathing of an aerosol of the compound) or the intra-tracheal route, 30 minutes before and 6 hours after ovalbumin challenge (10 minutes breathing of an aerosol generated from a 0.5% solution of ovalbumin). Hyper-reactivity of the airways to the thromboxane mimetic U46619, was measured 24 hours after ovalbumin challenge in un-restrained animals using a whole body plethysmograph (Buxco Ltd., USA). The guinea pigs were then sacrificed and the lungs lavaged. Total and differential leukocyte counts were then obtained for the bronchoalveolar lavage fluid and the percentage reduction in eosinophil accumulation determined (Sanjar et al., 1992). Dexamethasone (200 μg kg^−1 i.t) was used as a positive control. Data was presented as the inhibitory effect of the specified dose expressed as a percentage of the vehicle control response.

[2] = Solubility in water; format: physicochemical
[3] = target: T1, integrin VLA-4, expressed on the Jurkat J6 (human lymphoblast cell line) cell membrane with VCAM-1 (Homo sapiens, UniProt P05556+P13612); assay: Jurkat J6/VCAM-1 adhesion assay; format: cell-based; details: Jurkat J6 cell adhesion to VCAM-1, 1 mM MnCl2; mean of n experiments
T1 construct: integrin VLA-4, expressed on the Jurkat J6 (human lymphoblast cell line) cell membrane; endogenous in cells; host or cells: Jurkat J6 cells (integrin). zzVCAM-1 was made in house in Drosophila melanogaster S2 cells
T1 sequence (P13612 34-1032): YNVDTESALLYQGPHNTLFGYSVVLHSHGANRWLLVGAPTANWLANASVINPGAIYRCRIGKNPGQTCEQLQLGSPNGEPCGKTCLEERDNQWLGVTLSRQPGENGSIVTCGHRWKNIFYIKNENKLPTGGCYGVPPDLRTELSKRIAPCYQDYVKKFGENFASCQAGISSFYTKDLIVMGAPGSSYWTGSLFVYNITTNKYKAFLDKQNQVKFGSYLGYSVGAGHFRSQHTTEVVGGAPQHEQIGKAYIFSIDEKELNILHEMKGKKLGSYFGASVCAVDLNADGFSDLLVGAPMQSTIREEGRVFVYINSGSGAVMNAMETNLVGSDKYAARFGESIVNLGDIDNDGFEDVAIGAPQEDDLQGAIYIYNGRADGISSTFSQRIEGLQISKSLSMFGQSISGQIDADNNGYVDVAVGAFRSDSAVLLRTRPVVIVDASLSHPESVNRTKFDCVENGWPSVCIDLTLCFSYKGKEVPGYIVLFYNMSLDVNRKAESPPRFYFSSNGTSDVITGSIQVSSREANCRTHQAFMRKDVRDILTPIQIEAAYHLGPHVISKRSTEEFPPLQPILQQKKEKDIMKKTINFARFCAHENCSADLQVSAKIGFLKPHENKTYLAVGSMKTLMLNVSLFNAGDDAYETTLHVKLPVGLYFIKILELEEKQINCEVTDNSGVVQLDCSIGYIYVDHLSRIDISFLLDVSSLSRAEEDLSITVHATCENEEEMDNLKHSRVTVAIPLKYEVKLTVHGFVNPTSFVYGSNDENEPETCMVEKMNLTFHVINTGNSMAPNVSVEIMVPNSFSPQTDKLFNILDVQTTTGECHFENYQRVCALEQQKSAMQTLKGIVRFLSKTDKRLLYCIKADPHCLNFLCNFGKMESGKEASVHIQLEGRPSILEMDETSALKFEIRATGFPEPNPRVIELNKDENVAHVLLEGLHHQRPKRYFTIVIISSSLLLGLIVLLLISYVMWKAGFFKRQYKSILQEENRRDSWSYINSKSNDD
T1 sequence (P05556 21-798): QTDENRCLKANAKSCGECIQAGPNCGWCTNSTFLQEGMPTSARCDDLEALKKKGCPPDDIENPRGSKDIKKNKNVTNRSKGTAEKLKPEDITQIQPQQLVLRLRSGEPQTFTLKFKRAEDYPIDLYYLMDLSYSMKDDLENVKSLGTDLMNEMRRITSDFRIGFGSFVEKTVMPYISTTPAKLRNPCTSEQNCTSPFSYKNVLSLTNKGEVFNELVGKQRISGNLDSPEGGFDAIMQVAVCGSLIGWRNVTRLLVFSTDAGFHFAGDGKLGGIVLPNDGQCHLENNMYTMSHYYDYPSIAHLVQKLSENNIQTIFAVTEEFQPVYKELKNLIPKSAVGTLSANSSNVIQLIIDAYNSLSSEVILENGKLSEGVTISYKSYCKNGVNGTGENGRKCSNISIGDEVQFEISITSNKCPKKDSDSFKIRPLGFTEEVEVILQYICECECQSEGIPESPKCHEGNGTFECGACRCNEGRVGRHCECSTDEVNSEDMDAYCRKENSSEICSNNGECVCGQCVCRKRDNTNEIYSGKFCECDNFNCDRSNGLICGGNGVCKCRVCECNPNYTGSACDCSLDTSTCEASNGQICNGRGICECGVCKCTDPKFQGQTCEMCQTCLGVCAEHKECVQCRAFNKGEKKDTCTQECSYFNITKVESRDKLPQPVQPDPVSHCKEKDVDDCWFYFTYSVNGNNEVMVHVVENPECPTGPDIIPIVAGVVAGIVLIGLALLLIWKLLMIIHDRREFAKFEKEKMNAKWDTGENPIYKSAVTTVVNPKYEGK
Description: (1) Jurkat J6/VCAM-1 Adhesion Assay
This assay was used to investigate the interaction of the integrin VLA-4, expressed on the Jurkat J6 (human lymphoblast cell line) cell membrane with VCAM-1. Polystyrene 96-well microtitre plates were coated with human immunoglobulin G (IgG; Sigma Chemicals, UK, Product No. 14506) at a concentration of 0.05 mg ml^−1 in bicarbonate buffer (36 mM NaHCO3 and 22 mM Na2CO3, prepared in Dulbecco's phosphate buffered saline at pH 9.8 (PBS); Sigma Chemicals, UK, Product No. 14190-094) for 2 hours at 37° C. This solution was then aspirated and the plates were washed twice with PBS.
VCAM-1 was prepared by cloning its constituent seven domains into a Drosophila expression system with a zz (Protein A) tag. This zzVCAM-1 was then expressed from Drosophila melanogaster S2 cell culture, induced with copper. Protease inhibitors were added and the culture supernatant was clarified either by filtration through a 0.2 μm filter or by centrifugation. The zzVCAM-1 was then purified from this clarified medium using an IgG agarose column, equilibrated with either 20 mM sodium phosphate pH 7.2 alone or in the presence of 0.5M sodium chloride. Elution of zzVCAM-1 from the column was mediated using 3M ammonium thiocyanate, which was subsequently removed using a G25 desalting column, equilibrated with 20 mM sodium phosphate, pH 7.2. The purified zzVCAM-1 was then concentrated to a small volume (Amicon stirred cell concentrators) until a concentration of 62.5 ng ml^−1 was obtained, calculated using the extinction coefficient value.
This solution of zzVCAM-1 was then incubated overnight at 4° C. in the IgG coated microtitre plates with 3% bovine serum albumin (BSA) in PBS, followed by aspiration and two further washes with PBS. A concentration of the Jurkat J6 cells (6×10^6 cels ml^−1), grown in cell media RPMI 1640 (HyClone Ltd, Product No. B-9106-L) supplemented with 10% heat inactivated fetal calf serum (FCS; Gibco BRL, Product No. 10099-075) and 2 mM L-glutamine, were labelled with 10 μM of the fluorescent dye, 2′, 7′-bis(2-carboxyethyl)-5-(e6)-carboxyfluorescein acetoxymethyl ester (BCECF-AM; Molecular Probes Inc, Product No. B-1150) at 37° C. for 10 minutes. The excess dye was then removed by centrifugation at 500×g for 5 minutes and the cells were resuspended at a concentration of 1.2×10^7 cells ml^−1 in Hank's balanced salt solution (HBSS; Gibco BRL, Product No. 14190-094).
Equal volumes of compounds (dissolved in an appropriate solvent and diluted in HBSS containing 1 mM MnCl2) and the labelled Jurkat J6 cells, were added to the VCAM-1 coated plates and adhesion was allowed to proceed for 30 minutes at 37° C. Non, or loosely adhered cells, were removed by inversion of the plate and blotted with tissue paper. Two washes with PBS and further blotting were then performed, before the addition of 2% detergent (Triton-X®; Sigma Chemicals UK, Product No. X100). Counting was undertaken in a Wallac Viktor™ Fluorimeter, where low fluorescence values were indicative of compounds which had inhibited adhesion. All samples were assayed in singlicate and the following four parameter curve fit, shown by Equation (I) was applied: [formula]
Where a is the minimum, b is the Hill slope, c is the IC50 and d is the maximum. (Maximum and minimum values are those compared to adhesion in the absence of compound and in the presence of the dipotassium salt of 2 mM EDTA; Sigma Chemicals, UK, Product No. ED2P). Data is presented as the mean pIC50 with the standard error of the mean of n experiments.

SMILES	pIC50 [3]	also measured
C[C@@H]1C[C@H]2[C@@H]3CCC4=CC(=O)C=C[C@]4(C)[C@@]3(F)[C@@H](O)C[C@]2(C)[C@@]1(O)C(=O)CO [Dexamethasone, reference compound]	–	inhibition in vivo at 0.2 mg/kg ([1]; Cavia porcellus, Eosinophil, inhaled or nasal, 24 h, airway hyper-reactivity to U46619): 80%; % Inhibition Eosinophil Accumulation [1]: 55%
Cc1ccccc1OCC(=O)N[C@@H](CC(C)C)C(=O)N[C@@H](Cc1ccc(OC(=O)N2CCC(C(N)=O)CC2)cc1)C(=O)[O-].[K+] [Example 27A, (2S)-3-[4-({[4-(Aminocarbonyl)-1-piperidinyl]carbonyl}oxy)phenyl]-2-[((2S)-4-methyl-2-{[2-(2-methylphenoxy)acetyl]amino}pentanoyl)amino]propanoic acid potassium salt]	–	solubility [2]: > 250 mg/mL
CC(C)C[C@H](NC(=O)COc1ccc2ccccc2c1Br)C(=O)N[C@@H](Cc1ccc(OC(=O)N2CCN(C(=O)c3ccco3)CC2)cc1)C(=O)O [Example 44, (2S)-2-{[(2S)-2-({2-[(1-Bromo-2-naphthyl)oxy]acetyl}amino)-4-methylpentanoyl]amino}-3-[4-({[4-(2-furoyl)-1-piperazinyl]carbonyl}oxy)phenyl]propanoic acid]	7.62	–
CC(C)C[C@H](NC(=O)COc1ccccc1C1CCCCC1)C(=O)N[C@@H](Cc1ccc(OC(=O)N2CCC(NC(=O)Cc3ccc(Cl)cc3)CC2)cc1)C(=O)O [Example 45, (2S)-3-(4-{[(4-{[2-(4-Chlorophenyl)acetyl]amino}-1-piperidinyl)carbonyl]oxy}phenyl)-2-[((2S)-2-{[2-(2-cyclohexylphenoxy)acetyl]amino}-4-methylpentanoyl)amino]propanoic acid]	7.24	–
CC(C)C[C@H](NC(=O)COc1ccccc1C(C)(C)C)C(=O)N[C@@H](Cc1ccc(OC(=O)N2CCC(NC(=O)Cc3ccc(Cl)cc3)CC2)cc1)C(=O)O [Example 48, (2S)-2-{[(2S)-2-({2-[2-(Tert-butyl)phenoxy]acetyl}amino)-4-methylpentanoyl]amino}-3-(4-{[(4-{[2-(4-chlorophenyl)acetyl]amino}-1-piperidinyl)carbonyl]oxy}phenyl)propanoic acid]	7.38	–
CC(C)C[C@H](NC(=O)c1cccc2c1oc1ccccc12)C(=O)N[C@@H](Cc1ccc(OC(=O)N2CCC(NC(=O)Cc3ccc(Cl)cc3)CC2)cc1)C(=O)O [Example 49, (2S)-3-(4-{[(4-{[2-(4-Chlorophenyl)acetyl]amino}-1-piperidinyl)carbonyl]oxy}phenyl)-2-({(2S)-2-[(dibenzo[b,d]furan-4-ylcarbonyl)amino]-4-methylpentanoyl}amino)propanoic acid]	7.35	–
CC(C)C[C@H](NC(=O)COc1ccccc1C(C)(C)C)C(=O)N[C@@H](Cc1ccc(OC(=O)N2CCC(NC(=O)C(C3CCCCC3)C3CCCCC3)CC2)cc1)C(=O)O [Example 53, (2S)-2-{[(2S)-2-({2-[2-(Tert-butyl)phenoxy]acetyl}amino)-4-methylpentanoyl]amino}-3-{4-[({4-[(2,2-dicyclohexylacetyl)amino]-1-piperidinyl}carbonyl)oxy]phenyl}propanoic acid]	6.81	–
Cc1ccccc1OCC(=O)N[C@@H](CC(C)C)C(=O)N[C@@H](Cc1ccc(OC(=O)N2CCC(NC(=O)Cc3ccccc3)CC2)cc1)C(=O)O [Example 54, (2S)-2-[((2S)-4-Methyl-2-{[2-(2-methylphenoxy)acetyl]amino}pentanoyl)amino]-3-{4-[({4-[(2-phenylacetyl)amino]-1-piperidinyl}carbonyl)oxy]phenyl}propanoic acid]	8.25	–

Further compounds by rising pIC50 [3], results first:

pIC50 [3]	SMILES	also measured
7.06	CC(C)C[C@H](NC(=O)COc1ccccc1C1CCCCC1)C(=O)N[C@@H](Cc1ccc(OC(=O)N2CCC(NC(=O)CC3CCCCC3)CC2)cc1)C(=O)O [Example 56, (2S)-3-{4-[({4-[(2-Cyclohexylacetyl)amino]-1-piperidinyl}carbonyl)oxy]phenyl}-2-[((2S)-2-{[2-(2-cyclohexylphenoxy)acetyl]amino}-4-methylpentanoyl)amino]propanoic acid]	–
7.21	CC(C)C[C@H](NC(=O)COc1ccccc1C1CCCCC1)C(=O)N[C@@H](Cc1ccc(OC(=O)N2CCC(NC(=O)Cc3ccccc3)CC2)cc1)C(=O)O [Example 55, (2S)-2-[((2S)-2-{[2-(2-Cyclohexylphenoxy)acetyl]amino}-4-methylpentanoyl)amino]-3-{4-[({4-[(2-phenylacetyl)amino]-1-piperidinyl}carbonyl)oxy]phenyl}propanoic acid]	–
7.36	CC(C)C[C@H](NC(=O)COc1ccccc1C(=O)c1ccccc1)C(=O)N[C@@H](Cc1ccc(OC(=O)N2CCC(NC(=O)Cc3ccc(Cl)cc3)CC2)cc1)C(=O)O [Example 46, (2S)-2-[((2S)-2-{[2-(2-Benzoylphenoxy)acetyl]amino}-4-methylpentanoyl)amino]-3-(4-{[(4-{[2-(4-chlorophenyl)acetyl]amino}-1-piperidinyl)carbonyl]oxy}phenyl)propanoic acid]	–
7.48	CC(C)C[C@H](NC(=O)COc1ccccc1I)C(=O)N[C@@H](Cc1ccc(OC(=O)N2CCC(NC(=O)Cc3ccc(Cl)cc3)CC2)cc1)C(=O)O [Example 47, (2S)-3-(4-{[(4-{[2-(4-Chlorophenyl)acetyl]amino}-1-piperidinyl)carbonyl]oxy}phenyl)-2-[((2S)-2-{[2-(2-iodophenoxy)acetyl]amino}-4-methylpentanoyl)amino]propanoic acid]	–
7.48	CC(C)C[C@H](NC(=O)COc1ccccc1C(C)(C)C)C(=O)N[C@@H](Cc1ccc(OC(=O)N2CCC(NC(=O)CC3CCCCC3)CC2)cc1)C(=O)O [Example 52, (2S)-2-{[(2S)-2-({2-[2-(Tert-butyl)phenoxy]acetyl}amino)-4-methylpentanoyl]amino}-3-{4-[({4-[(2-cyclohexylacetyl)amino]-1-piperidinyl}carbonyl)oxy]phenyl}propanoic acid]	–
7.60	CC(C)C[C@H](NC(=O)COc1cc2ccccc2cc1C(=O)N1CCCCC1)C(=O)N[C@@H](Cc1ccc(OC(=O)N2CCC(NC(=O)Cc3ccc(Cl)cc3)CC2)cc1)C(=O)O [Example 50, (2S)-3-(4-{[(4-{[2-(4-Chlorophenyl)acetyl]amino}-1-piperidinyl)carbonyl]oxy}phenyl)-2-({(2S)-4-methyl-2-[(2-{[3-(1-piperidinylcarbonyl)-2-naphthyl]oxy}acetyl)amino]pentanoyl}amino)propanoic acid]	–
7.86	CC(C)C[C@H](NC(=O)COc1ccccc1C(C)(C)C)C(=O)N[C@@H](Cc1ccc(OC(=O)N2CCC(NC(=O)Cc3ccccc3)CC2)cc1)C(=O)O [Example 51, (2S)-2-{[(2S)-2-({2-[2-(Tert-butyl)phenoxy]acetyl}amino)-4-methylpentanoyl]amino}-3-{4-[({4-[(2-phenylacetyl)amino]-1-piperidinyl}carbonyl)oxy]phenyl}propanoic acid]	–
